Read-outs that look alike come from different tables or passages of the source.
Columns and labels:
UGT2B4 = target: T1, UGT2B4 (Homo sapiens, UniProt P06133); experiment: UGT2B4 supersomes-catalyzed 4-MU glucuronidation inhibition; conditions: recombinant human UGT, mean of triplicate
T1 sequence (P06133 24-528): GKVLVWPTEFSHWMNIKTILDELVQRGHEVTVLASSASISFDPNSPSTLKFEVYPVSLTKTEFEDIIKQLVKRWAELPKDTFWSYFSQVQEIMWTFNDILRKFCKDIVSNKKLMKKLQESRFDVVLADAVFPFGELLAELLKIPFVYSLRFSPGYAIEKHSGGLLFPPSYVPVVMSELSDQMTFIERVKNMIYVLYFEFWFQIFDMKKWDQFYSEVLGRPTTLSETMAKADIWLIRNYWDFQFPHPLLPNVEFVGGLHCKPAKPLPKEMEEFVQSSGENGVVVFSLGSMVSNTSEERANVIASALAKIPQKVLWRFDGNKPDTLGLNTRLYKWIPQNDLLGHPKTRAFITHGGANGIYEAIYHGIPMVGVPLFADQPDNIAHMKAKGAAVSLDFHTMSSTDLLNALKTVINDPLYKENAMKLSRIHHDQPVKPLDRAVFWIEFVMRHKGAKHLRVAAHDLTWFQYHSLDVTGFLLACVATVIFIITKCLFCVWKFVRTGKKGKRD

UGT2B7 = target: T2, UGT2B7 (Homo sapiens, UniProt P16662); experiment: UGT2B7 supersomes-catalyzed 4-MU glucuronidation inhibition; conditions: recombinant human UGT, mean of triplicate
T2 sequence (P16662 24-529): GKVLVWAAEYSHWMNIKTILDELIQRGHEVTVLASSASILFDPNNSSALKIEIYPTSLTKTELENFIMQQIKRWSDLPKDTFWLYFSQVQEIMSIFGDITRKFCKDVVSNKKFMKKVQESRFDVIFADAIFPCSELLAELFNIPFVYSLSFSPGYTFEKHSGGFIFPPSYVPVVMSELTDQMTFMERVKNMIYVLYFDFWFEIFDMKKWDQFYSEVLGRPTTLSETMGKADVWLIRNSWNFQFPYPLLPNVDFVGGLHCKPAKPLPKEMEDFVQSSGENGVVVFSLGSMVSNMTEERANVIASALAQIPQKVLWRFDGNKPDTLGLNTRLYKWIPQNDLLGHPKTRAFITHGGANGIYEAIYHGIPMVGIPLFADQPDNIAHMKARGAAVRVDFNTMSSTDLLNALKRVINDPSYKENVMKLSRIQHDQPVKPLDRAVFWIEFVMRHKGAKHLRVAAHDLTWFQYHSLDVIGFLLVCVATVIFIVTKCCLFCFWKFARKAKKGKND

UGT1A3 = target: T3, UGT1A3 (Homo sapiens, UniProt P35503); experiment: UGT1A3 supersomes-catalyzed 4-MU glucuronidation inhibition; conditions: recombinant human UGT, mean of triplicate
T3 sequence (P35503 29-534): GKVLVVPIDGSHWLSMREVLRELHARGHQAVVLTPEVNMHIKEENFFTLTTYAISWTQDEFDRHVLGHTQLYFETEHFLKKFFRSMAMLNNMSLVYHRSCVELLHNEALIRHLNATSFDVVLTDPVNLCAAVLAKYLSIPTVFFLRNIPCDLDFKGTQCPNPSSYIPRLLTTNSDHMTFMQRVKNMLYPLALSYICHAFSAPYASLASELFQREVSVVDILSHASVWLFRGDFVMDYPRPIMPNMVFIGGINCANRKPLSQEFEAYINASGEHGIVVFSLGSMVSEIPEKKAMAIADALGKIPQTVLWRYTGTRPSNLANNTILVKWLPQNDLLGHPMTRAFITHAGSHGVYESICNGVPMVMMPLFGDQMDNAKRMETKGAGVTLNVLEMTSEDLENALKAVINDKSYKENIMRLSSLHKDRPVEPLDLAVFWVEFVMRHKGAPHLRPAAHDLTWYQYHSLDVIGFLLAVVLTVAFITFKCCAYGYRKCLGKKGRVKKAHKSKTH

UGT1A1 = target: T4, UGT1A1 (Homo sapiens, UniProt P22309); experiment: UGT1A1 supersomes-catalyzed 4-MU glucuronidation inhibition; conditions: recombinant human UGT, mean of triplicate
T4 sequence (P22309 26-533): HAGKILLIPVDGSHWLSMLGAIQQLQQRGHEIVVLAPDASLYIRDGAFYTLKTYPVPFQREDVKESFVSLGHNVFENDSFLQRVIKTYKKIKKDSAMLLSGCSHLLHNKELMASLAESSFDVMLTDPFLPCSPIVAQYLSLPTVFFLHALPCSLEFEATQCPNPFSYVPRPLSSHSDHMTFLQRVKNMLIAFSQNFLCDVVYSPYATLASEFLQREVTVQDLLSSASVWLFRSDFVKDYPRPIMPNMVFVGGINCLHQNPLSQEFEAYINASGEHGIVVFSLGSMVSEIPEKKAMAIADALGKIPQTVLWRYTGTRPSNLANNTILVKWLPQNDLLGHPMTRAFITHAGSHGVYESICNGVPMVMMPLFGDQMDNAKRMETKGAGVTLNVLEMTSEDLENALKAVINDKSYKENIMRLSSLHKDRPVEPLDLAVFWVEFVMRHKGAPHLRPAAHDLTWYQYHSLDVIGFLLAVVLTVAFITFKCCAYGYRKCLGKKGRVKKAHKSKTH

UGT1A8 = target: T5, UGT1A8 (Homo sapiens, UniProt Q9HAW9); conditions: for residual activity 1A8: recombinant human UGT, mean of triplicate
T5 sequence (Q9HAW9 26-530): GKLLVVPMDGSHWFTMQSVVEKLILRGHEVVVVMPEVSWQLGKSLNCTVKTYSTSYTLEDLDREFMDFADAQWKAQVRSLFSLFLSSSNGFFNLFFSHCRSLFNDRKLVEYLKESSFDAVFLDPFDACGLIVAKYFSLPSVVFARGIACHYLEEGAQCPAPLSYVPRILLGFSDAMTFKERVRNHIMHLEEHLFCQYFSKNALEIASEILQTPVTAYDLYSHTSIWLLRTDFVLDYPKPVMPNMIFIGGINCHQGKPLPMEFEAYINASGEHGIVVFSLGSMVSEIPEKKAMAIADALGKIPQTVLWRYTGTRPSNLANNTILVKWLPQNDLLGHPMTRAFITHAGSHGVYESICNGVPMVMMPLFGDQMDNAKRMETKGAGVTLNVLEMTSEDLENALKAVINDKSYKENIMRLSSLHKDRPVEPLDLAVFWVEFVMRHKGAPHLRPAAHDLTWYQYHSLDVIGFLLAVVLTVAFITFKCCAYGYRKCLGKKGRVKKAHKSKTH

| SMILES | residual activity 2B4 (UGT2B4; 50 μM LPC components) [%] | residual activity 2B7 (UGT2B7; 50 μM LPC components) [%] | residual activity 1A3 (UGT1A3; 50 μM LPC components) [%] | residual activity 1A1 (UGT1A1; 50 μM LPC components) [%] | residual activity 1A8 (UGT1A8; 50 μM LPC components) [%] | inhibition kinetic type towards UGT1A8 (UGT1A8; Dixon and Lineweaver-Burk plots, 4-MU glucuronidation) | residual activity 2B4 (UGT2B4; 50 μM PC components) [%] | residual activity 2B7 (UGT2B7; 50 μM PC components) [%] | residual activity 1A3 (UGT1A3; 50 μM PC components) [%] | residual activity 1A1 (UGT1A1; 50 μM PC components) [%] | residual activity 1A8 (UGT1A8; 50 μM PC components) [%] |
| --- | --- | --- | --- | --- | --- | --- | --- | --- | --- | --- | --- |
| CCCCCCCCCCCCCCCCCC(=O)OC[C@@H](O)COP(=O)([O-])OCC[N+](C)(C)C [LPC 18:0] | 280.4 | 39.3 | 72.4 | 160.5 | 1.2 | competitive inhibition | – | – | – | – | – |
| CCCCCCCCCCCCCCCCCCCCCC(=O)OC[C@H](COP(=O)([O-])OCC[N+](C)(C)C)OC(=O)CCCCCCCCCCCCCCCCCCCCC [PC 22:0, 22:0] | – | – | – | – | – | – | 60.0 | 33.0 | 92.1 | 170.3 | 38.0 |
| CC/C=C\C/C=C\C/C=C\C/C=C\C/C=C\C/C=C\CCC(=O)O[C@H](COC(=O)CCCCCCCCCCCCCCCCC)COP(=O)([O-])OCC[N+](C)(C)C [PC 18:0, 22:6, 1-stearoyl-2-docosahexaenoyl-sn-glycero-3-phosphocholine] | – | – | – | – | – | – | 183.2 | 73.6 | 90.0 | 186.6 | 116.1 |
| CCCCCCCCCCCC(=O)OC[C@H](COP(=O)([O-])OCC[N+](C)(C)C)OC(=O)CCCCCCCCCCC [PC 12:0, 12:0] | – | – | – | – | – | – | 182.7 | 85.8 | 93.0 | 208.8 | 114.1 |
| CCCCCC(=O)OC[C@H](COP(=O)([O-])OCC[N+](C)(C)C)OC(=O)CCCCC [PC 6:0, 6:0] | – | – | – | – | – | – | 178.7 | 70.2 | 105.1 | 187.8 | 116.2 |
| CCCCCCCCCCCCCCCCCC(=O)OC[C@H](COP(=O)([O-])OCC[N+](C)(C)C)OC(=O)CCCCCCCCCCCCCCCCC [PC 18:0, 18:0] | – | – | – | – | – | – | 93.4 | 36.0 | 83.7 | 208.2 | 84.1 |
| CCCCCCCCCCCCC(=O)OC[C@@H](O)COP(=O)([O-])OCC[N+](C)(C)C [LPC 13:0] | 239.4 | 79.9 | 88.1 | 160.6 | 101.6 | – | – | – | – | – | – |
| CCCCCCCCC(=O)OC[C@@H](O)COP(=O)([O-])OCC[N+](C)(C)C [LPC 9:0] | 179.1 | 76.2 | 79.6 | 179.6 | 101.2 | – | – | – | – | – | – |
| CCCCCCCCCCCCC(=O)OC[C@H](COP(=O)([O-])OCC[N+](C)(C)C)OC(=O)CCCCCCCCCCCC [PC 13:0, 13:0] | – | – | – | – | – | – | 193.8 | 81.4 | 110.7 | 201.1 | 114.3 |
| CCCCCCCCC(=O)OC[C@H](COP(=O)([O-])OCC[N+](C)(C)C)OC(=O)CCCCCCCC [PC 9:0, 9:0] | – | – | – | – | – | – | 156.7 | 79.6 | 117.7 | 162.3 | 33.2 |
| CCCCCCCC(=O)OCC(O)COP(=O)([O-])OCC[N+](C)(C)C (stereo not shown) [LPC 8:0] | 185.0 | 70.1 | 80.3 | 184.9 | 102.7 | – | – | – | – | – | – |
| CCCCCCCC(=O)OC[C@H](COP(=O)([O-])OCC[N+](C)(C)C)OC(=O)CCCCCCC [PC 8:0, 8:0] | – | – | – | – | – | – | 173.1 | 71 | 119.1 | 155.6 | 78.3 |
| CCCCCCCCCCCCCCCCC(=O)OC[C@@H](O)COP(=O)([O-])OCC[N+](C)(C)C [LPC 17:0] | 333.4 | 81.5 | 119.0 | 167.6 | 2.2 | – | – | – | – | – | – |
| CCCCCCCCCCC(=O)OC[C@H](COP(=O)([O-])OCC[N+](C)(C)C)OC(=O)CCCCCCCCCC [PC 11:0, 11:0] | – | – | – | – | – | – | 181.0 | 100.5 | 110.7 | 232.3 | 116.8 |
| CCCCCCCCCCCC(=O)OC[C@@H](O)COP(=O)([O-])OCC[N+](C)(C)C [LPC 12:0] | 255.5 | 72.8 | 74.8 | 165.9 | 89.2 | – | – | – | – | – | – |

Source: publication PMC6631349 (Xenobiotica; the fate of foreign compounds in biological …, 2014)
